Experiment [1] deals with T1, CDK2/cyclin A (Homo sapiens, UniProt P24941).
T1 construct: made in house; host or cells: insect cells infected with baculoviruses
As to the kind of experiment: Inhibitory activity against CDK2/cyclin A enzyme (GST-RB phosphorylation, P32-γ-ATP, scintillation counting). Type of experiment: biochemical. The settings on record: 100 μM ATP, GST-RB substrate, 30° C. 30 minutes. Here is the method: (§1) Analysis of inhibitory activity against CDK2/cyclin A and CDK4/cyclin D1 enzyme.
(§2) The inhibitory activity against CDK2 is measured by referring to Kitagawa, M. et al., Oncogene 9:2549, 1994 and the inhibitory activity against CDK4 is measured by referring to Carlson, B. A. et al., Cancer Research 56:2473,1996.
(§3) As for CDK2, either the extract from the insect cell infected both with baculovirus which expresses CDK2 gene and baculovirus which expresses cyclin A gene or the active enzyme which had been purified therefrom was used. CDK4 enzyme was also obtained from the insect cell infected both with baculovirus expressing CDK4 gene and baculovirus expressing cyclin D1 gene. As the substrate for CDK2, either histon H1 or Rb protein was used. Rb protein was also used as the substrate for CDK4.
(§4) Specifically the activities of enzymes CDK2/cyclin A and CDK4/cyclin D1 were determined according to the following procedure.
(§5) 100 ng of enzyme was reacted in a total 1000 μl of 20 mM Tris (pH 8.0), 100 mM NaCl, 10 mM MgCl2 buffer solution containing 20 μg of GST-RB protein, 100 μM of ATP and 5 μCi of P32-γ-ATP at 30° C. for 30 minutes. Then, the enzyme reaction was stopped by adding EDTA to a concentration of 20 mM. Subsequently, 30 μl of 50% glutathione bead (purchased from Pharmacia) was added to attach GST-RB to the bead, which was washed three times with 20mM Tris (pH 8.0), 100 mM NaCl, 10 mM EDTA solution, and then scintillation counting was carried out. To analyze the inhibitory activity of the compound, the inhibitor having a proper concentration was added to the enzyme reaction solution, and then the enzyme activity was measured according to the above method.
(§6) The inhibitory activity of the compound of formula (1) according to the present invention against CDK2 and CDK4 is represented as IC50 value. The compounds which are not included in Examples(compound 63, 64, 65 and 66) were synthesized and purified according to the same procedure as examples, and then IC50 thereof was measured.

In experiment [2] the target is T2, CDK4/cyclin D1 (Homo sapiens, UniProt P11802).
T2 construct: made in house; host or cells: insect cells infected with baculoviruses
T2 sequence (P11802 whole entry, species assumed): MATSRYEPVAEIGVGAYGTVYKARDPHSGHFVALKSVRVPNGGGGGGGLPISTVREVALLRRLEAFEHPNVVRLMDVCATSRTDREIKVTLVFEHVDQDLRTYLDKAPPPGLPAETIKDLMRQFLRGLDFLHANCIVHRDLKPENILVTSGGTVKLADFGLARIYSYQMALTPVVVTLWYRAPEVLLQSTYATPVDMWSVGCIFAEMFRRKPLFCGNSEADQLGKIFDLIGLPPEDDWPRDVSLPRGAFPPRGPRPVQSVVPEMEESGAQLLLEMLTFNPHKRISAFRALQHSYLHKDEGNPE
T2 sequence (P24385 whole entry partner, species assumed): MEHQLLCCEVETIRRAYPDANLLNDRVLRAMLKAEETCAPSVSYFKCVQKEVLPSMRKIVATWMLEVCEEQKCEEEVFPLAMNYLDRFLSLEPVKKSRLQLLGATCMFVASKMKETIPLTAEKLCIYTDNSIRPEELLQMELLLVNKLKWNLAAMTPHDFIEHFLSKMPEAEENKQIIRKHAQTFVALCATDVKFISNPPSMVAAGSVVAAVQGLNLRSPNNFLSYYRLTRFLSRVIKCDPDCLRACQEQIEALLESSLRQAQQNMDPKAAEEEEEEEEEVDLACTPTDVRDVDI
As to the kind of experiment: Inhibitory activity against CDK4/cyclin D1 enzyme (GST-RB phosphorylation, P32-γ-ATP, scintillation counting). Type of experiment: biochemical. The following applies: CDK4/cyclin D1, 100 μM ATP, GST-RB substrate, 30° C. 30 minutes. Here is the method:
as §1, §2, §3, §4, §5, §6

One may read the IC50 as the concentration needed to halve the response being measured. The low end stands for higher potency, the high end for lower potency. `COc1ccc2c(=O)c(O)c(-c3ccc(O)c(O)c3)oc2c1` [Compound 23, 2-(3,4-Dihydroxyphenyl)-3-hydroxy-7-methoxy-4H-chromen-4-one]: the IC50 in experiment [1] and in experiment [2] was less than 30 µM throughout.

Regarding `COc1ccc(-c2oc3c(Cl)cc(Cl)cc3c(=O)c2O)cc1` [Compound 10, 6,8-dichloro-3-hydroxy-2-(4-methoxy-phenyl)-chromen-4-one], the IC50 in experiment [1] and in experiment [2] was more than 100 µM each time.

In the case of `O=c1c(O)c(-c2ccc(O)c(O)c2)oc2c(Br)cc(Br)cc12` [Compound 20, 6,8-Dibromo-2-(3,4-dihydroxyphenyl)-3-hydroxy-4H-chromen-4-one], the IC50 in experiment [1] and in experiment [2] was less than 5 µM each time.

Take `COc1ccc2c(=O)cc(-c3ccccc3)oc2c1` [Compound 2, 7-methoxy-2-phenyl-chromen-4-one]: the IC50 in experiment [1] and in experiment [2] was more than 200 µM each time.

As to `N#Cc1cccc(NC(=O)Nc2ccc3oc(-c4ccc(O)c(O)c4)c(O)c(=O)c3c2)c1` [Compound 60, N-(3-cyanophenyl)-N′-[2-(3,4-dihydroxyphenyl)-3-hydroxy-4-oxo-4H-chromen-6-yl]urea], the values for the IC50 in experiment [1] and in experiment [2] were 4.7 µM and 2.7 µM, respectively.

For the compound `O=c1c(O)c(-c2ccc(O)c(O)c2)oc2ccc(Cl)cc12` [Compound 12, 6-chloro-2-(3,4-dihydroxyphenyl)-3-hydroxy-4H-chromen-4-one], the values for the IC50 in experiment [1] and in experiment [2] were less than 5 µM and less than 10 µM, respectively.

Consider `O=C(Nc1ccc2oc(-c3ccc(O)c(O)c3)c(O)c(=O)c2c1)c1ccccc1` [Compound 52, N-[2-(3,4-dihydroxyphenyl)-3-hydroxy-4-oxo-4H-chromen-6-yl]benzamide], for which the IC50 came to 23 µM in experiment [1] and 6 µM in experiment [2].

For `Nc1ccc2oc(-c3ccc(O)c(O)c3)c(O)c(=O)c2c1` [Compound 15, 6-amino-2-(3,4-dihydroxyphenyl)-3-hydroxy-4H-chromen-4-one], the IC50 in experiment [1] and in experiment [2] was less than 5 µM each time.

Regarding `COc1ccc2c(=O)c(O)c(-c3ccc4c(c3)OCO4)oc2c1` [Compound 6, 2-(benzo[1,3]dioxol-5-yl)-3-hydroxy-7-methoxy-chromen-4-one], the IC50 in experiment [1] and in experiment [2] was more than 100 µM in each case.

Consider `O=c1c(O)c(-c2ccc(O)c(O)c2)oc2ccc(NS(=O)(=O)c3ccc(-c4ccccn4)s3)cc12` [Compound 37, N-[2-(3,4-dihydroxyphenyl)-3-hydroxy-4-oxo-4H-chromen-6-yl]-5-(2-pyridinyl)-2-thiophenesulfonamide], for which the IC50 was determined as 12.5 µM in experiment [1] and 4.2 µM in experiment [2].

For the compound `COc1ccc2c(=O)c(O)c(-c3ccc(O)c(O)c3)oc2c1O` [Compound 24, 2-(3,4-dihydroxyphenyl)-3,8-dihydroxy-7-methoxy-4H-chromen-4-one], the IC50 in experiment [1] and in experiment [2] was less than 10 µM in each case.

For the compound `O=C(NCc1ccccc1)Nc1ccc2oc(-c3ccc(O)c(O)c3)c(O)c(=O)c2c1` [Compound 54, N-benzyl-N′-[2-(3,4-dihydroxyphenyl)-3-hydroxy-4-oxo-4H-chromen-6-yl]urea], the IC50 in experiment [1] was 2.3 µM; in experiment [2], 2.8 µM.

For the compound `O=C(Nc1ccc2oc(-c3ccc(O)c(O)c3)c(O)c(=O)c2c1)c1ccc(Cl)cc1` [Compound 53, 4-chloro-N-[2-(3,4-dihydroxyphenyl)-3-hydroxy-4-oxo-4H-chromen-6-yl]benzamide], the values for the IC50 in experiment [1] and in experiment [2] were more than 100 µM and 5.6 µM, respectively.

For `COc1ccc2oc(-c3ccc(O)c(O)c3)c(O)c(=O)c2c1` [Compound 16, 2-(3,4-dihydroxyphenyl)-3-hydroxy-6-methoxy-4H-chromen-4-one], the IC50 in experiment [1] and in experiment [2] was less than 10 µM throughout.

With `COc1ccc2oc(-c3ccc4c(c3)OCO4)c(O)c(=O)c2c1` [Compound 5, 2-(benzo[1,3]dioxol-5-yl)-3-hydroxy-6-methoxy-chromen-4-one], the IC50 in experiment [1] and in experiment [2] was more than 100 µM each time.

On to `O=c1c(O)c(-c2ccc(O)c(O)c2)oc2ccc(NS(=O)(=O)CCCCl)cc12` [Compound 41, 3-chloro-N-[2-(3,4-dihydroxyphenyl)-3-hydroxy-4-oxo-4H-chromen-6-yl]-1-propanesulfonamide], for which the IC50 in experiment [1] is 20 µM; in experiment [2], 6.5 µM.

For the compound `O=c1c(O)c(-c2ccc(O)c(O)c2)oc2ccc(NS(=O)(=O)c3ccc4ccccc4c3)cc12` [Compound 31, N-[2-(3,4-dihydroxyphenyl)-3-hydroxy-4-oxo-4H-chromen-6-yl]-2-naphthalenesulfonamide], the IC50 amounted to 35.5 µM in experiment [1] and 4.2 µM in experiment [2].

As for `O=C(Nc1ccc([N+](=O)[O-])cc1)Nc1ccc2oc(-c3ccc(O)c(O)c3)c(O)c(=O)c2c1` [Compound 61, N-[2-(3,4-dihydroxyphenyl)-3-hydroxy-4-oxo-4H-chromen-6-yl]-N′-(4-nitrophenyl)urea], the values for the IC50 in experiment [1] and in experiment [2] were 5.6 µM and 1.7 µM, respectively.

In the case of `O=C(Nc1ccc2oc(-c3ccc(O)c(O)c3)c(O)c(=O)c2c1)Nc1ccc(Cl)cc1Cl` [Compound 59, N-(2,4-dichlorophenyl)-N′-[2-(3,4-dihydroxyphenyl)-3-hydroxy-4-oxo-4H-chromen-6-yl]-urea], the values for the IC50 in experiment [1] and in experiment [2] were 20 µM and 10 µM, respectively.

Turning to `O=c1c(O)c(-c2ccc(O)c(O)c2)oc2ccc(NS(=O)(=O)NC3CCCCC3)cc12` [Compound 47, N-Cyclohexyl-N′-[2-(3,4-dihydroxyphenyl)-3-hydroxy-4-oxo-4H-chromen-6-yl]sulfamide], the IC50 in experiment [1] came out at 65 µM; in experiment [2] it was 2 µM.

Turning to `O=c1c(O)c(-c2ccc(O)c(O)c2)oc2ccc(NS(=O)(=O)c3ccc4c(c3)CNCC4)cc12` [Compound 46, N-[2-(3,4-dihydroxyphenyl)-3-hydroxy-4-oxo-4H-chromen-6-yl]-1,2,3,4-tetrahydro-7-isoquinolinesulfonamide], the IC50 in experiment [1] is 82 µM; in experiment [2], 6.3 µM.

With `O=C(N1CCc2ccc(S(=O)(=O)Nc3ccc4oc(-c5ccc(O)c(O)c5)c(O)c(=O)c4c3)cc2C1)C(F)(F)F` [Compound 44, N-[2-(3,4-dihydroxyphenyl)-3-hydroxy-4-oxo-4H-chromen-6-yl]-2-(2,2,2-trifluoroacetyl)-1,2,3,4-tetrahydro-7-isoquinolinesulfonamide], the figures for the IC50 in experiment [1] and in experiment [2] were 4.1 µM and 2.3 µM, respectively.

Take `O=c1c(O)c(-c2ccc(O)c(O)c2)oc2ccc(Br)cc12` [Compound 13, 6-bromo-2-(3,4-dihydroxyphenyl)-3-hydroxy-4H-chromen-4-one]: the IC50 in experiment [1] and in experiment [2] was less than 5 µM throughout.

Turning to `COc1cccc2oc(-c3ccc(O)c(O)c3)c(O)c(=O)c12` [Compound 27, 2-(3,4-dihydroxyphenyl)-3-hydroxy-5-methoxy-4H-chromen-4-one], the IC50 in experiment [1] and in experiment [2] was less than 10 µM each time.

In the case of `COc1ccc(-c2oc3cc(OC)ccc3c(=O)c2O)cc1` [Compound 7, 3-hydroxy-7-methoxy-2-(4-methoxy-phenyl)-chromen-4-one], the IC50 in experiment [1] and in experiment [2] was more than 100 µM throughout.

As to `Nc1ccc(NC(=O)Nc2ccc3oc(-c4ccc(O)c(O)c4)c(O)c(=O)c3c2)cc1` [Compound 62, N-(4-aminophenyl)-N′-[2-(3,4-dihydroxyphenyl)-3-hydroxy-4-oxo-4H-chromen-6-yl]urea], the IC50 is 2.6 µM in experiment [1] and 2.3 µM in experiment [2].

With `O=c1c(O)c(-c2ccc(O)c(O)c2)oc2c(Cl)cc(Cl)cc12` [Compound 19, 6,8-dichloro-2-(3,4-dihydroxyphenyl)-3-hydroxy-4H-chromen-4-one], the IC50 in experiment [1] and in experiment [2] was less than 10 µM each time.

Take `O=c1c(O)c(-c2ccc(O)c(O)c2)oc2c(O)cccc12` [Compound 25, 2-(3,4-dihydroxyphenyl)-3,8-dihydroxy-4H-chromen-4-one]: the IC50 in experiment [1] and in experiment [2] was less than 10 µM each time.

Consider `O=C(Nc1ccccc1)Nc1ccc2oc(-c3ccc(O)c(O)c3)c(O)c(=O)c2c1` [Compound 56, N-[2-(3,4-dihydroxyphenyl)-3-hydroxy-4-oxo-4H-chromen-6-yl]-N′-phenylurea], for which the IC50 in experiment [1] was determined as 5 µM; in experiment [2] it was 4.2 µM.

`O=c1c(O)c(-c2ccc(O)c(O)c2)oc2ccc(NS(=O)(=O)c3ccc(N4CCOCC4)c([N+](=O)[O-])c3)cc12` [Compound 48, N-[2-(3,4-dihydroxyphenyl)-3-hydroxy-4-oxo-4H-chromen-6-yl]-4-(4-morpholinyl)-3-nitrobenzenesulfonamide] registered a half-maximal inhibitory concentration (IC50) in experiment [2] of 0.94 µM.

The values above are taken from US6500846B1, “CDK inhibitors having flavone structure” (LG Chemical, Ltd., priority 1998, dated 2002).
